# From patent publication US20100086958A1, “NOVEL ENZYME” (priority 2008, published 2010)
# Tests used:
# Bsp184FDH = test: Inhibition studies of Bsp184FDH-catalysed formate oxidation; type: biochemical, Burkholderia cenocepacia PC184
# Description: (§1) Inhibition of formate oxidation by Bsp383FDH or Bsp184FDH was performed in the presence of the following potential inhibitors: NaN3, NaNO2, KNO3, KNO2, KCN and iodoacetamide at 5 mM and 20 mM concentrations. In a typical procedure, 10 μL of enzyme, Bsp383FDH (0.022 mg/mL) or Bsp184FDH (0.020 mg/mL) was incubated in sodium phosphate buffer (50 mM, pH 7.0) containing 100 mM of formate (sodium formate) and 5 mM and 20 mM inhibitors concentrations for 5 minutes at room temperature. Reaction of formate oxidation was then initiated by addition of NADP in 5 mM final concentration. Absorbance at 340 nm due to NADPH formation was spectrophotometrically monitored using a microtiter plate reader. Absorbance was recorded at 10 seconds intervals for 10 minutes. Initial activities were then calculated using the linear part of the initial readings using at least 20 data points and used directly as relative activity values. Control experiments were also performed in the absence of the enzyme.
# Bsp383FDH = test: Inhibition studies of Bsp383FDH-catalysed formate oxidation; type: biochemical, Burkholderia sp. 383
# Description: as §1
structure (smiles),measurement,setting,value
O=C[O-].[Na+] [Formate salt],inhibition of BcenFDH1,Bsp184FDH,does not inhibit
same,inhibition of BspFDH2,Bsp383FDH,does not inhibit
